Results on two compounds are retold here after patent publication US6716822B2, “Therapeutic agent for ischemia which inhibits apoptosis under ischemic condition” (priority 2000, dated 2004).

Data set [1] in a line: Acute toxicity test, subcutaneous injection. The following applies: mouse, in vivo, sc, male C57BL/6 mice, dead mice counted through 1-7 days. The source says: All antibiotics used in the present invention, except for an aminoglycoside antibiotic of geneticin, were not subject to acute toxicity tests since they have been clinically approved for their safety. In case of geneticin, after subcutaneously injecting geneticin into male C57BL/6 mice, dead mice were counted through 1-7 days.

For a further data set, the system named is Sprague-Dawley rats. Description: Effect of antibiotics on ischemic cells: rat left anterior descending artery ligature, infarct/ischemic area by Evans blue/TTC staining. The following applies: 45 mg/kg peritoneally, LAD ligature 2 hours. The data set is classed as in vivo.

Take `CN[C@@H]1[C@@H](O)[C@@H](O[C@@H]2[C@@H](O)[C@H](O[C@H]3O[C@H]([C@@H](C)O)[C@@H](O)[C@H](O)[C@H]3N)[C@@H](N)C[C@H]2N)OC[C@]1(C)O` [geneticin]: the LD50 in data set [1] is roughly 3800 mg/kg. In addition, in the data set on Sprague-Dawley rats, the “AR/LV (percentage of ischemic area per cross-sectional area of heart)” value stood at 40.0 ± 4.1%; the “IS/(IS + AR) (percentage of infarct area per sum of infarct and ischemic area)” value was 24.6 ± 2.1%; the “IS/LV (percentage of infarct area per cross-sectional area of heart)” value is given as 12.5 ± 1.8%.
`C[C@H]1c2cccc(O)c2C(=O)C2=C(O)[C@]3(O)C(=O)C(C(N)=O)=C(O)[C@@H](N(C)C)[C@@H]3[C@@H](O)[C@@H]21` [doxycycline]: in the data set with Sprague-Dawley rats, the “AR/LV (percentage of ischemic area per cross-sectional area of heart)” value is recorded as 41.8 ± 4.3%; the “IS/(IS + AR) (percentage of infarct area per sum of infarct and ischemic area)” value was found to be 29.3 ± 4.2%; the “IS/LV (percentage of infarct area per cross-sectional area of heart)” value came to 16.9 ± 2.5%.

Broadly, the LD50 is the dose at which mortality reaches 50%. Read a low LD50 as a more toxic substance.
